# Patent US5045549A, “Substituted 4-pyridone 3-carboxylic acid derivatives, method for their production and their pharmaceutical compositions” (priority 1986, dated 1991)
# Where two headings read alike, the source gives them in different places.
# How the values were obtained:
# [1] = system: Staphylococcus aureus MSSA; test: MIC agar dilution assay (Table 1); type: cell-based; settings: for MIC50: read-out: MIC, 50% Inhibitious; for MIC90: read-out: MIC, 90% Inhibitious
# [2] = system: Bacteroides fragilis; test: MIC agar dilution assay, anaerobe bacteria (Table 1); type: cell-based
# [3] = system: Streptococcus beta-hemolytic; test: MIC agar dilution assay (Table 1); type: cell-based; settings: for MIC50: read-out: MIC, 50% Inhibitious; for MIC90: read-out: MIC, 90% Inhibitious
# [4] = system: Staphylococcus aureus MRSA; test: MIC agar dilution assay (Table 1); type: cell-based; settings: for MIC50: read-out: MIC, 50% Inhibitious; for MIC90: read-out: MIC, 90% Inhibitious
# [5] = system: Klebsiella pneum. AD; test: animal or person; settings: for ED50: Klebsiella, in Mus musculus, 168 h
# Protocol: (§1) In this test, white mice (weight 20±2 g) of Charles River strain CDI received an intraperitoneal injection of a specific amount of a suspension of a bacterial cell culture. The amount is sufficient to cause death of untreated animals within 24-48 hrs. A half hour later, the test animals were administered either an oral or a subcutaneous dosing of the test compound in 0.5 ml of 0.2% starch solution. With streptococcal infections, the test animals received a second dose after 3 hrs. Each test group had 5 animals and each test was performed three times. The ED50 values were calculated on the basis of the survivors at 7 days. An estimate of the oral absorption of the test compounds was determined from the ratio of the ED50 values from the oral and subcutaneous dosings.
# [6] = system: Staph. aureus SSC-80-32; test: animal or person; settings: for ED50: Staphylococcus aureus, SSC8032, in Mus musculus, 168 h
# Protocol: as §1
# [7] = system: Staph. aureus Smith; test: animal or person; settings: for ED50: Staphylococcus aureus, in Mus musculus, 168 h
# Protocol: as §1
# [8] = system: Strept. pneum. SVI; test: animal or person; settings: for ED50: Mus musculus, 168 h
# Protocol: as §1
# [9] = system: Strept. pyogenes C 203; test: animal or person; settings: for ED50: Streptococcus pyogenes, C203, in Mus musculus, 168 h
# Protocol: as §1
# [10] = system: Escherichia coli 314; test: animal or person; settings: for ED50: Escherichia coli, 314, in Mus musculus, 168 h
# Protocol: as §1
# [11] = system: Streptococcus faecalis; test: MIC agar dilution assay (Table 1); type: cell-based; settings: Enterococcus faecalis; for MIC50: read-out: MIC, 50% Inhibitious; for MIC90: read-out: MIC, 90% Inhibitious
# [12] = system: Streptococcus pneumoniae; test: MIC agar dilution assay (Table 1); type: cell-based
# [13] = system: Bacteroides app.; test: MIC agar dilution assay, anaerobe bacteria (Table 1); type: cell-based; settings: for MIC50: read-out: MIC, 50% Inhibitious; for MIC90: read-out: MIC, 90% Inhibitious
# [14] = system: PROV STUA; test: MIC agar dilution assay (Table III); type: cell-based; settings: 17 PROV STUA CMC 83 3; 18 Hrs, 35 Celsius; read-out: MINIMAL INHIBITORY CONC.
# Protocol: (§2) The results are summarized in Table III. |TEST: 406 METHOD: […] |MEDIUM: […] |INCUBATION: 18 Hrs. 35 Celsius | Aerobic: T
# [15] = system: STREP FAEC; test: MIC agar dilution assay (Table III); type: cell-based; settings: 18 h, read-out: MINIMAL INHIBITORY CONC.
# Protocol: as §2
# [16] = system: CITRO DIV; test: MIC agar dilution assay (Table III); type: cell-based; settings: 18 CITRO DIV K 82 24; 18 Hrs, 35 Celsius; read-out: MINIMAL INHIBITORY CONC.
# Protocol: as §2
# [17] = system: ESCH COLI; test: MIC agar dilution assay (Table III); type: cell-based; settings: 18 h, read-out: MINIMAL INHIBITORY CONC.
# Protocol: as §2
# [18] = system: PSEU AERUG; test: MIC agar dilution assay (Table III); type: cell-based; settings: 18 h, read-out: MINIMAL INHIBITORY CONC.
# Protocol: as §2
# [19] = system: MORG MORG; test: MIC agar dilution assay (Table III); type: cell-based; settings: 18 h, read-out: MINIMAL INHIBITORY CONC.
# Protocol: (§3) TEST: 406 METHOD: AGAR DIL
# (§4) MEDIUM: MUEL-HIN INOCULUM: 1.OE+04 - 5.OE+04
# (§5) INCUBATION: 18 Hrs. 35 Celsius
# [20] = system: STAPH AUR; test: MIC agar dilution assay (Table III); type: cell-based; settings: 18 h, 24 STAPH AUR CMC 83 131, 35 Celsius, read-out: MINIMAL INHIBITORY CONC.
# Protocol: as §3, §4, §5
# [21] = system: SERRAT MARC; test: MIC agar dilution assay (Table III); type: cell-based; settings: 18 h, read-out: MINIMAL INHIBITORY CONC.
# Protocol: as §3, §4, §5
# [22] = o/s, estimate of oral absorption, 10080 min
# [23] = read-out: MIC, 50% Inhibitious, 50%
# [24] = read-out: MIC, 90% Inhibitious, 90%
structure (smiles),measurement,setting,value
"O=C(O)c1cn(C2CC2)c2cc(N3CCNCC3)c(F)cc2c1=O [CF, Ciprofloxacin]",MIC50,"[1]; Staphylococcus aureus, MSSA",0.5 µg/mL
same,MIC90,"[1]; Staphylococcus aureus, MSSA",1 µg/mL
same,MIC50,"[2]; read-out: MIC, 50% Inhibitious",4 µg/mL
same,MIC90,"[2]; read-out: MIC, 90% Inhibitious",4 µg/mL
same,MIC50,[3]; Streptococcus,0.5 µg/mL
same,MIC90,[3]; Streptococcus,1 µg/mL
same,MIC50,"[4]; Staphylococcus aureus, MRSA",1 µg/mL
same,MIC90,"[4]; Staphylococcus aureus, MRSA",1 µg/mL
same,ED50,[5]; po,0.38 mg/kg
same,ED50,[5]; sc,0.07 mg/kg
same,Ratio o/s of the ED50 values from oral and subcutaneous administration,[5]; [22],4.8
same,ED50,[6]; po,5.9 mg/kg
same,ED50,[6]; sc,0.71 mg/kg
same,Ratio o/s of the ED50 values from oral and subcutaneous administration,[6]; [22],8.3
same,ED50,[7]; po,4.3 mg/kg
same,ED50,[7]; sc,0.64 mg/kg
same,Ratio o/s of the ED50 values from oral and subcutaneous administration,[7]; [22],6.7
same,ED50,[8]; po,47 mg/kg
same,ED50,[8]; sc,15 mg/kg
same,Ratio o/s of the ED50 values from oral and subcutaneous administration,[8]; [22],3.1
same,ED50,[9]; po,21 mg/kg
same,ED50,[9]; sc,4 mg/kg
same,Ratio o/s of the ED50 values from oral and subcutaneous administration,[9]; [22],5.3
same,ED50,[10]; po,0.52 mg/kg
same,ED50,[10]; sc,0.07 mg/kg
same,Ratio o/s of the ED50 values from oral and subcutaneous administration,[10]; [22],7.4
same,MIC50,[11],1 µg/mL
same,MIC90,[11],2 µg/mL
same,MIC50,"[12]; read-out: MIC, 50% Inhibitious",1 µg/mL
same,MIC90,"[12]; read-out: MIC, 90% Inhibitious",2 µg/mL
same,MIC50,[13]; Bacteroides,16 µg/mL
same,MIC90,[13]; Bacteroides,16 µg/mL
"CCn1cc(C(=O)O)c(=O)c2cc(F)c(N3CCNCC3)nc21 [EC, Enoxacin]",MIC50,[2]; [23],16 µg/mL
same,MIC90,[2]; [24],16 µg/mL
same,MIC50,"[13]; Bacteroides app., 50%",16 µg/mL
"CN1CC2CC1CN2c1cc2c(cc1F)c(=O)c(C(=O)O)cn2-c1ccc(F)cc1 (stereo not shown) [Example 5, 6-Fluoro-1-(4-fluorophenyl)-1,4-dihydro-7(5-methyl-2,5-diazabicyclo(2.2.1)hept-2-yl)-4-oxoquinoline-3-carboxylic acid]",MIC50,"[1]; Staphylococcus aureus, MSSA",0.25 µg/mL
same,MIC90,"[1]; Staphylococcus aureus, MSSA",0.5 µg/mL
same,MIC50,"[2]; read-out: MIC, 50% Inhibitious",4 µg/mL
same,MIC90,"[2]; read-out: MIC, 90% Inhibitious",4 µg/mL
same,MIC50,[3]; Streptococcus,1 µg/mL
same,MIC90,[3]; Streptococcus,4 µg/mL
same,MIC50,"[4]; Staphylococcus aureus, MRSA",0.25 µg/mL
same,MIC90,"[4]; Staphylococcus aureus, MRSA",1 µg/mL
same,MIC50,[11],4 µg/mL
same,MIC90,[11],8 µg/mL
same,MIC50,"[12]; read-out: MIC, 50% Inhibitious",1 µg/mL
same,MIC90,"[12]; read-out: MIC, 90% Inhibitious",2 µg/mL
same,MIC50,[13]; Bacteroides,8 µg/mL
same,MIC90,[13]; Bacteroides,8 µg/mL
"CCn1cc(C(=O)O)c(=O)c2cc(F)c(N3CCN(C)CC3)cc21 [PF, Pefloxacin, reference compound]",MIC50,"[1]; Staphylococcus aureus MSSA, 50%",0.5 µg/mL
same,MIC90,"[1]; Staphylococcus aureus MSSA, 90%",1 µg/mL
same,MIC50,"[3]; Streptococcus beta-hemolytic, 50%",4 µg/mL
same,MIC90,"[3]; Streptococcus beta-hemolytic, 90%",8 µg/mL
same,MIC50,"[4]; Staphylococcus aureus MRSA, 50%",0.5 µg/mL
same,MIC90,"[4]; Staphylococcus aureus MRSA, 90%",1 µg/mL
same,ED50,[5]; po,0.8 mg/kg
same,ED50,[5]; sc,0.71 mg/kg
same,ED50,[7]; po,3.8 mg/kg
same,ED50,[7]; sc,1.4 mg/kg
same,ED50,[10]; po,0.84 mg/kg
same,ED50,[10]; sc,0.48 mg/kg
same,MIC50,"[11]; Streptococcus faecalis, 50%",4 µg/mL
same,MIC90,"[11]; Streptococcus faecalis, 90%",8 µg/mL
same,MIC50,[12]; [23],4 µg/mL
same,MIC90,[12]; [24],8 µg/mL
same,MIC,[14],4 µg/mL
same,MIC,"[15]; 25 STREP FAEC UCI 85 30, 35 Celsius",4 µg/mL
same,MIC,"[15]; 26 STREP FAEC VGH 84 69, 35 Celsius",2 µg/mL
same,MIC,"[15]; 27 STREP FAEC CMC 83 120, 35 Celsius",4 µg/mL
same,MIC,[16],0.03 µg/mL
same,MIC,"[17]; 1 ESCH COLI MOR 84 20, 35 Celsius",0.06 µg/mL
same,MIC,"[17]; 2 ESCH COLI VGH 84 19, 35 Celsius",0.06 µg/mL
same,MIC,"[17]; 3 ESCH COLI CMC 84 50, 35 Celsius",0.06 µg/mL
same,MIC,"[17]; 28 ESCH COLI ATCC 25922, 35 Celsius",0.03 µg/mL
same,MIC,"[18]; 19 PSEU AERUG K 84 16, 35 Celsius",4 µg/mL
same,MIC,"[18]; 20 PSEU AERUG VGH 84 3, 35 Celsius",8 µg/mL
same,MIC,"[18]; 21 PSEU AERUG CMC 83 20, 35 Celsius",2 µg/mL
same,MIC,"[19]; 14 MORG MORG CMC 84 38, 35 Celsius",0.03 µg/mL
same,MIC,"[19]; 15 MORG MORG MOR 84 45, 35 Celsius",0.03 µg/mL
same,MIC,[20],2 µg/mL
same,MIC,"[21]; 10 SERRAT MARC MOR 84 41, 35 Celsius",0.06 µg/mL
same,MIC,"[21]; 11 SERRAT MARC CMC 83 74, 35 Celsius",4 µg/mL
